Tests used:
Assay in all cases: drug sensitivity score (DSS) (DSS (dimensionless)); higher = more sensitive (stronger drug response)
FIMM-PDC1 = patient-derived ovarian cancer cells; conditions: genetic perturbation: none (patient-derived cell culture)
How it was run: (§1)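 Drugs were pre-plated in 384-well plates at five concentrations covering a 10,000-fold range, and 1 000 – 1 500 cells per well were added from patient-derived cultures or from ovarian cancer cell lines whose shRNA had been induced with 100 ng/ml doxycycline for three days or longer. Incubation lasted three days at 37 °C under 5.0 % CO2. A PHERAstar FS then recorded CellTiter-Glo luminescence as the readout of viability. A drug sensitivity score, calculated as described before, summarised the dose-response curve of every drug.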

FIMM-PDC3 = patient-derived ovarian cancer cells; conditions: genetic perturbation: none (patient-derived cell culture)
How it was run: as §1

FIMM-PDC4 = patient-derived ovarian cancer cells; conditions: genetic perturbation: none (patient-derived cell culture)
How it was run: as §1

FIMM-PDC5 = patient-derived ovarian cancer cells; conditions: genetic perturbation: none (patient-derived cell culture)
How it was run: as §1

FIMM-PDC6 = patient-derived ovarian cancer cells; conditions: genetic perturbation: none (patient-derived cell culture)
How it was run: as §1

FIMM-PDC7 = patient-derived ovarian cancer cells; conditions: genetic perturbation: none (patient-derived cell culture)
How it was run: as §1

JHOS2 = system: JHOS2
How it was run: as §1

Kuramochi = system: Kuramochi
How it was run: as §1

OVSAHO = system: OVSAHO
How it was run: as §1

[1] = genetic perturbation: DOX-induced PTK7 shRNA knockdown
[2] = genetic perturbation: DOX-induced control shRNA

Nc1cc(F)ccc1NC(=O)c1ccc(CNC(=O)/C=C/c2cccnc2)cc1 [Tucidinostat]
drug sensitivity score (FIMM-PDC1): 5.9 | drug sensitivity score (FIMM-PDC3): 7.7 | drug sensitivity score (FIMM-PDC4): 3.5 | drug sensitivity score (FIMM-PDC5): 7.3 | drug sensitivity score (FIMM-PDC6): 6.3 | drug sensitivity score (FIMM-PDC7): 7.4 | drug sensitivity score (JHOS2; [1]): 2 | drug sensitivity score (JHOS2; [2]): 2.1 | drug sensitivity score (Kuramochi; [1]): 6.65 | drug sensitivity score (Kuramochi; [2]): 1.5 | drug sensitivity score (OVSAHO; [1]): 6.5 | drug sensitivity score (OVSAHO; [2]): 2.1

CN[C@@H]1C[C@H]2O[C@@](C)([C@@H]1OC)n1c3ccccc3c3c4c(c5c6ccccc6n2c5c31)C(=O)N[C@H]4O [UCN-01]
drug sensitivity score (FIMM-PDC1): 26.5 | drug sensitivity score (FIMM-PDC3): 22.2 | drug sensitivity score (FIMM-PDC4): 26.4 | drug sensitivity score (FIMM-PDC5): 29.6 | drug sensitivity score (FIMM-PDC6): 24 | drug sensitivity score (FIMM-PDC7): 28.4 | drug sensitivity score (JHOS2; [1]): 21.2 | drug sensitivity score (JHOS2; [2]): 21.5 | drug sensitivity score (Kuramochi; [1]): 12.3 | drug sensitivity score (Kuramochi; [2]): 16.2 | drug sensitivity score (OVSAHO; [1]): 24.7 | drug sensitivity score (OVSAHO; [2]): 15.2

CC(C)Nc1cc(-c2c[nH]c(C(=O)N[C@H](CO)c3cccc(Cl)c3)c2)c(Cl)cn1 [Ulixertinib]
drug sensitivity score (FIMM-PDC1): 0.15 | drug sensitivity score (FIMM-PDC3): 6.4 | drug sensitivity score (FIMM-PDC4): 13.1 | drug sensitivity score (FIMM-PDC5): 14.3 | drug sensitivity score (FIMM-PDC6): 12.3 | drug sensitivity score (FIMM-PDC7): 12 | drug sensitivity score (JHOS2; [1]): 2.8 | drug sensitivity score (JHOS2; [2]): 6.8 | drug sensitivity score (Kuramochi; [1]): 10.2 | drug sensitivity score (Kuramochi; [2]): 3.3 | drug sensitivity score (OVSAHO; [1]): 7.3 | drug sensitivity score (OVSAHO; [2]): 5

Cn1ncc(Cl)c1-c1cc(C(=O)N[C@H](CN)Cc2ccc(F)c(F)c2)oc1Cl [Uprosertib]
drug sensitivity score (FIMM-PDC1): 1.9 | drug sensitivity score (FIMM-PDC3): < 0 | drug sensitivity score (FIMM-PDC4): 5 | drug sensitivity score (FIMM-PDC5): 8.9 | drug sensitivity score (FIMM-PDC6): 6.8 | drug sensitivity score (FIMM-PDC7): 6.5 | drug sensitivity score (JHOS2; [1]): 0.6 | drug sensitivity score (JHOS2; [2]): 0.2 | drug sensitivity score (Kuramochi; [1]): 1.55 | drug sensitivity score (Kuramochi; [2]): < 0 | drug sensitivity score (OVSAHO; [1]): < 0 | drug sensitivity score (OVSAHO; [2]): 2.5

C=CC(=O)N1CC/C(=C\c2ccc(F)c([N+](=O)[O-])c2)C(=O)/C(=C/c2ccc(F)c([N+](=O)[O-])c2)C1 [VLX1570]
drug sensitivity score (FIMM-PDC1): 12.1 | drug sensitivity score (FIMM-PDC3): 18.5 | drug sensitivity score (FIMM-PDC4): 16.9 | drug sensitivity score (FIMM-PDC5): 22.3 | drug sensitivity score (FIMM-PDC6): 19.6 | drug sensitivity score (FIMM-PDC7): 20.5 | drug sensitivity score (JHOS2; [1]): 25.9 | drug sensitivity score (JHOS2; [2]): 15.3 | drug sensitivity score (Kuramochi; [1]): 23.4 | drug sensitivity score (Kuramochi; [2]): 16.4 | drug sensitivity score (OVSAHO; [1]): 23.2 | drug sensitivity score (OVSAHO; [2]): 19.4

CNC(=O)c1ccccc1Nc1cc(Nc2ccc(N3CCOCC3)cc2OC)ncc1C(F)(F)F [VS-4718]
drug sensitivity score (FIMM-PDC1): 5.4 | drug sensitivity score (FIMM-PDC3): 3.8 | drug sensitivity score (FIMM-PDC4): 9.2 | drug sensitivity score (FIMM-PDC5): 8 | drug sensitivity score (FIMM-PDC6): 10.3 | drug sensitivity score (FIMM-PDC7): 5.4 | drug sensitivity score (JHOS2; [1]): 5.9 | drug sensitivity score (JHOS2; [2]): 3.7 | drug sensitivity score (Kuramochi; [1]): 10.8 | drug sensitivity score (Kuramochi; [2]): 4.8 | drug sensitivity score (OVSAHO; [1]): 5.7 | drug sensitivity score (OVSAHO; [2]): 9.9

CCCCC(=O)OCC(=O)[C@]1(O)Cc2c(O)c3c(c(O)c2[C@@H](O[C@H]2C[C@H](NC(=O)C(F)(F)F)[C@H](O)[C@H](C)O2)C1)C(=O)c1c(OC)cccc1C3=O [Valrubicin]
drug sensitivity score (FIMM-PDC1): 5.75 | drug sensitivity score (FIMM-PDC3): 7.3 | drug sensitivity score (FIMM-PDC4): 7.7 | drug sensitivity score (FIMM-PDC5): 8 | drug sensitivity score (FIMM-PDC6): 7.2 | drug sensitivity score (FIMM-PDC7): 7 | drug sensitivity score (JHOS2; [1]): 5.7 | drug sensitivity score (JHOS2; [2]): 7.5 | drug sensitivity score (Kuramochi; [1]): 5.25 | drug sensitivity score (Kuramochi; [2]): 5.1 | drug sensitivity score (OVSAHO; [1]): 6.7 | drug sensitivity score (OVSAHO; [2]): 5.8

C[C@@H]1COC(Nc2ccc3ncnc(Nc4ccc(OCc5nccs5)c(Cl)c4)c3c2)=N1 [Varlitinib]
drug sensitivity score (FIMM-PDC1): 1.1 | drug sensitivity score (FIMM-PDC3): 8.6 | drug sensitivity score (FIMM-PDC4): 9.5 | drug sensitivity score (FIMM-PDC5): 12.6 | drug sensitivity score (FIMM-PDC6): 5.2 | drug sensitivity score (FIMM-PDC7): 6.9 | drug sensitivity score (JHOS2; [1]): < 0 | drug sensitivity score (JHOS2; [2]): < 0 | drug sensitivity score (Kuramochi; [1]): 0.05 | drug sensitivity score (Kuramochi; [2]): < 0 | drug sensitivity score (OVSAHO; [1]): 1.2 | drug sensitivity score (OVSAHO; [2]): < 0

O=C(/C=C\n1cnc(-c2cc(C(F)(F)F)cc(C(F)(F)F)c2)n1)NNc1ccccn1 [Verdinexor]
drug sensitivity score (FIMM-PDC1): 3.7 | drug sensitivity score (FIMM-PDC3): 10.9 | drug sensitivity score (FIMM-PDC4): 11.2 | drug sensitivity score (FIMM-PDC5): 11 | drug sensitivity score (FIMM-PDC6): 11.7 | drug sensitivity score (FIMM-PDC7): 11.5 | drug sensitivity score (JHOS2; [1]): 11.3 | drug sensitivity score (JHOS2; [2]): 7.7 | drug sensitivity score (Kuramochi; [1]): 4.4 | drug sensitivity score (Kuramochi; [2]): 5.2 | drug sensitivity score (OVSAHO; [1]): 6.1 | drug sensitivity score (OVSAHO; [2]): 3.2

CC[C@]1(O)C[C@@H]2CN(CCc3c([nH]c4ccccc34)[C@@](C(=O)OC)(c3cc4c(cc3OC)N(C)[C@H]3[C@@](O)(C(=O)OC)[C@H](OC(C)=O)[C@]5(CC)C=CCN6CC[C@]43[C@@H]65)C2)C1 [Vinblastine]
drug sensitivity score (FIMM-PDC1): 15.3 | drug sensitivity score (FIMM-PDC3): 13 | drug sensitivity score (FIMM-PDC4): 7.6 | drug sensitivity score (FIMM-PDC5): 8.2 | drug sensitivity score (FIMM-PDC6): 0.7 | drug sensitivity score (FIMM-PDC7): 8.9 | drug sensitivity score (JHOS2; [1]): 3.7 | drug sensitivity score (JHOS2; [2]): 9.7 | drug sensitivity score (Kuramochi; [1]): 2.8 | drug sensitivity score (Kuramochi; [2]): 3.9 | drug sensitivity score (OVSAHO; [1]): 2 | drug sensitivity score (OVSAHO; [2]): 9

CCC1=C[C@@H]2CN(C1)Cc1c([nH]c3ccccc13)[C@@](C(=O)OC)(c1cc3c(cc1OC)N(C)[C@H]1[C@@](O)(C(=O)OC)[C@H](OC(C)=O)[C@]4(CC)C=CCN5CC[C@]31[C@@H]54)C2 [Vinorelbine]
drug sensitivity score (FIMM-PDC1): 19.2 | drug sensitivity score (FIMM-PDC3): 26.2 | drug sensitivity score (FIMM-PDC4): 26.7 | drug sensitivity score (FIMM-PDC5): 27.2 | drug sensitivity score (FIMM-PDC6): 18.6 | drug sensitivity score (FIMM-PDC7): 12.8 | drug sensitivity score (JHOS2; [1]): 19.4 | drug sensitivity score (JHOS2; [2]): 17.1 | drug sensitivity score (Kuramochi; [1]): 20.3 | drug sensitivity score (Kuramochi; [2]): 7.2 | drug sensitivity score (OVSAHO; [1]): 22.6 | drug sensitivity score (OVSAHO; [2]): 18.5

CNC(=O)c1cccc(-c2ccc3c(N4CCOC[C@@H]4C)nc(N4CCOC[C@@H]4C)nc3n2)c1 [Vistusertib]
drug sensitivity score (FIMM-PDC1): 8.75 | drug sensitivity score (FIMM-PDC3): 7.8 | drug sensitivity score (FIMM-PDC4): 14.9 | drug sensitivity score (FIMM-PDC5): 23.9 | drug sensitivity score (FIMM-PDC6): 13 | drug sensitivity score (FIMM-PDC7): 18.6 | drug sensitivity score (JHOS2; [1]): 6.1 | drug sensitivity score (JHOS2; [2]): 10.5 | drug sensitivity score (Kuramochi; [1]): 9.7 | drug sensitivity score (Kuramochi; [2]): 12.4 | drug sensitivity score (OVSAHO; [1]): 12.6 | drug sensitivity score (OVSAHO; [2]): 14.3

CC[C@@H]1C(=O)N(C)c2cnc(Nc3ccc(C(=O)N[C@H]4CC[C@H](N5CCN(CC6CC6)CC5)CC4)cc3OC)nc2N1C(C)C [Volasertib]
drug sensitivity score (FIMM-PDC1): 3.9 | drug sensitivity score (FIMM-PDC3): 7 | drug sensitivity score (FIMM-PDC4): 6 | drug sensitivity score (FIMM-PDC5): 14.8 | drug sensitivity score (FIMM-PDC6): 0.9 | drug sensitivity score (FIMM-PDC7): 4.2 | drug sensitivity score (JHOS2; [1]): 14.2 | drug sensitivity score (JHOS2; [2]): 4.7 | drug sensitivity score (Kuramochi; [1]): 9.65 | drug sensitivity score (Kuramochi; [2]): 2.4 | drug sensitivity score (OVSAHO; [1]): 6.4 | drug sensitivity score (OVSAHO; [2]): 6.4

O=C(CCCCCCC(=O)Nc1ccccc1)NO [Vorinostat]
drug sensitivity score (FIMM-PDC1): 6 | drug sensitivity score (FIMM-PDC3): 7.9 | drug sensitivity score (FIMM-PDC4): 4.9 | drug sensitivity score (FIMM-PDC5): 10.4 | drug sensitivity score (FIMM-PDC6): 10.1 | drug sensitivity score (FIMM-PDC7): 6.3 | drug sensitivity score (JHOS2; [1]): 3.2 | drug sensitivity score (JHOS2; [2]): 6.1 | drug sensitivity score (Kuramochi; [1]): 9.45 | drug sensitivity score (Kuramochi; [2]): 4.8 | drug sensitivity score (OVSAHO; [1]): 8.3 | drug sensitivity score (OVSAHO; [2]): 7.2

Oc1nc(-c2ccc(C(F)(F)F)cc2)nc2c1CSCC2 [XAV-939]
drug sensitivity score (FIMM-PDC1): 1.1 | drug sensitivity score (FIMM-PDC3): 1.5 | drug sensitivity score (FIMM-PDC4): 1.6 | drug sensitivity score (FIMM-PDC5): 6.3 | drug sensitivity score (FIMM-PDC6): 4.1 | drug sensitivity score (FIMM-PDC7): 10.8 | drug sensitivity score (JHOS2; [1]): < 0 | drug sensitivity score (JHOS2; [2]): 0.7 | drug sensitivity score (Kuramochi; [1]): 0.35 | drug sensitivity score (Kuramochi; [2]): 0.1 | drug sensitivity score (OVSAHO; [1]): 2.1 | drug sensitivity score (OVSAHO; [2]): 3

FC(F)c1nc2ccccc2n1-c1nc(N2CCOCC2)nc(N2CCOCC2)n1 [ZSTK474]
drug sensitivity score (FIMM-PDC1): 8.5 | drug sensitivity score (FIMM-PDC3): 10 | drug sensitivity score (FIMM-PDC4): 13.9 | drug sensitivity score (FIMM-PDC5): 17.4 | drug sensitivity score (FIMM-PDC6): 11.8 | drug sensitivity score (FIMM-PDC7): 15.7 | drug sensitivity score (JHOS2; [1]): 6.6 | drug sensitivity score (JHOS2; [2]): 8.1 | drug sensitivity score (Kuramochi; [1]): 13.8 | drug sensitivity score (Kuramochi; [2]): 7.5 | drug sensitivity score (OVSAHO; [1]): 13.5 | drug sensitivity score (OVSAHO; [2]): 14

— the supplement of paper PMC9386025
